Assay results as given in patent US9023398B2, “Method for improving the aqueous solubility of poorly-soluble substances” (Kabushiki Kaisha Sangi, priority 2009, dated 2015).
“And” between values parts separate entries of the source, which are not always exact repeats. Identical values can stand only once.

Key:
[1] = Dissolution test of poorly-soluble substances using distilled water; type: physicochemical
[2] = Dissolution test of poorly-soluble substances using 2nd fluid for disintegration test (pH 6.8) of the Japanese Pharmacopoeia; type: physicochemical
Method: From initiation of the test, the mixed solution was stirred with a stirrer having a length of 15 mm. The rotation number of the stirrer was 120 rpm, and all of the tests were conducted in a thermostat at 37±0.5° C. Two types of test solutions, namely, distilled water and 2nd fluid for disintegration test (pH 6.8) of the Japanese Pharmacopoeia were used. As such 2nd fluid for disintegration test of the Japanese Pharmacopoeia, a solution prepared by diluting the 10-fold concentration solution of Kanto Kagaku Co., Ltd. with distilled water was used.
A comparative test was carried out in the same manner as that described above with the exception that a poorly-soluble substance or the like was used in an amount equal to that of a substance with improved aqueous solubility, instead of the substance with improved aqueous solubility.
1 mL of the solution was sampled in an Eppendorf centrifuge tube, 1, 3, 10, 30, 60, 180 and 360 minutes after initiation of the test. The thus sampled solution was centrifuged at 12,000 rpm for 5 minutes. […] In the case of the comparative test, the poorly-soluble substance or the like, which had not been dissolved in the solution, was removed. An aliquot of this supernatant was immediately frozen. The frozen sample was freeze-dried, and it was then used as a sample in the measurement of the amount of the substance with improved aqueous solubility, which had been dissolved in the test solution. The dissolved poorly-soluble substance was measured mainly using a dual wavelength absorption photometer.

[3] = after dissolution test for 360 minutes, distilled water, 37±0.5° C.
[4] = 2nd fluid for disintegration test, elution time 1 min
[5] = 2nd fluid for disintegration test, elution time 3 min
[6] = 2nd fluid for disintegration test, elution time 10 min
[7] = 2nd fluid for disintegration test, elution time 30 min
[8] = 2nd fluid for disintegration test, elution time 60 min
[9] = 2nd fluid for disintegration test, elution time 180 min
[10] = 2nd fluid for disintegration test, elution time 360 min
[11] = after dissolution test for 360 minutes, Second disintegration test medium (pH 6.8), 37±0.5° C.
[12] = 2nd fluid for disintegration test, elution time 120 min

CC(C)(Sc1cc(C(C)(C)C)c(O)c(C(C)(C)C)c1)Sc1cc(C(C)(C)C)c(O)c(C(C)(C)C)c1 [Comparative Example 5-3, Probucol]
Dissolved amount [1, 3]: 9.7 µg/mL
Dissolved amount ([1]; water, elution time 1 min): 0.7 µg/mL
Dissolved amount ([1]; water, elution time 3 min): 2.7 µg/mL
Dissolved amount ([1]; water, elution time 10 min): 3.7 µg/mL
Dissolved amount ([1]; water, elution time 30 min): 6.1 µg/mL
Dissolved amount ([1]; water, elution time 60 min): 7.6 µg/mL
Dissolved amount ([1]; water, elution time 180 min): 8.3 µg/mL
Dissolved amount ([1]; water, elution time 360 min): 9.7 µg/mL
Dissolved amount [2, 4]: 4.7 µg/mL
Dissolved amount [2, 5]: 14.9 µg/mL
Dissolved amount [2, 6]: 19.9 µg/mL
Dissolved amount [2, 7]: 21.2 µg/mL
Dissolved amount [2, 8]: 21.8 µg/mL
Dissolved amount [2, 9]: 26.8 µg/mL
Dissolved amount [2, 10]: 28.0 µg/mL
Dissolved amount [2, 11]: 28.0 µg/mL

OCCN(CCO)c1nc(N2CCCCC2)c2nc(N(CCO)CCO)nc(N3CCCCC3)c2n1 [compound 31, Dipyridamole]
Dissolved amount ([1]; water, elution time 3 min): 7.8 µg/mL
Dissolved amount ([1]; water, elution time 10 min): 7.9 µg/mL
Dissolved amount ([1]; water, elution time 30 min): 8.0 µg/mL
Dissolved amount ([1]; water, elution time 120 min): 8.5 µg/mL
Dissolved amount ([1]; water, elution time 360 min): 8.2 µg/mL
Dissolved amount ([2]; Dipyridamole, 2nd fluid for disintegration test, elution time 3 min): 6.5 µg/mL
Dissolved amount ([2]; Dipyridamole, 2nd fluid for disintegration test, elution time 10 min): 6.5 µg/mL
Dissolved amount ([2]; Dipyridamole, 2nd fluid for disintegration test, elution time 30 min): 8.3 µg/mL
Dissolved amount ([2]; Dipyridamole, 2nd fluid for disintegration test, elution time 120 min): 8.5 µg/mL
Dissolved amount ([2]; Dipyridamole, 2nd fluid for disintegration test, elution time 360 min): 9.2 µg/mL

CCCN(CCC)S(=O)(=O)c1ccc(C(=O)O)cc1 [compound 38, Probenecid]
Dissolved amount ([1]; Probenecid, water, elution time 3 min): 10.7 µg/mL
Dissolved amount ([1]; Probenecid, water, elution time 10 min): 22.7 µg/mL
Dissolved amount ([1]; Probenecid, water, elution time 30 min): 33.4 µg/mL
Dissolved amount ([1]; Probenecid, water, elution time 120 min): 39.8 µg/mL
Dissolved amount ([1]; Probenecid, water, elution time 360 min): 37.5 µg/mL
Dissolved amount ([2]; Probenecid, 2nd fluid for disintegration test, elution time 3 min): 386.2 µg/mL
Dissolved amount ([2]; Probenecid, 2nd fluid for disintegration test, elution time 10 min): 1107.2 µg/mL
Dissolved amount ([2]; Probenecid, 2nd fluid for disintegration test, elution time 30 min): 1315.0 µg/mL
Dissolved amount ([2]; Probenecid, 2nd fluid for disintegration test, elution time 120 min): 2619.5 µg/mL
Dissolved amount ([2]; Probenecid, 2nd fluid for disintegration test, elution time 360 min): 3715.9 µg/mL

CCC1(c2ccccc2)C(=O)NCNC1=O [compound 14, Primidone]
Dissolved amount [1, 3]: 180.3 µg/mL
Dissolved amount [2, 11]: 335.2 µg/mL

CC(=O)SC[C@@H](C)C(=O)N1CCC[C@H]1C(=O)N[C@@H](Cc1ccccc1)C(=O)O [compound 24, Alacepril]
Dissolved amount ([1]; water, elution time 3 min): 526.2 µg/mL
Dissolved amount ([1]; water, elution time 10 min): 805.6 µg/mL
Dissolved amount ([1]; water, elution time 30 min): 931.2 µg/mL
Dissolved amount ([1]; water, elution time 120 min): 994.9 µg/mL
Dissolved amount ([1]; water, elution time 360 min): 996.5 µg/mL
Dissolved amount [2, 5]: 2311.1 µg/mL
Dissolved amount [2, 7]: 2525.0 µg/mL

O=C(CCCN1CCC(O)(c2ccc(Cl)cc2)CC1)c1ccc(F)cc1 [compound 46, Haloperidol]
Dissolved amount ([1]; Haloperidol, water, elution time 3 min): 8.2 µg/mL
Dissolved amount ([1]; Haloperidol, water, elution time 10 min): 10.0 µg/mL
Dissolved amount ([1]; Haloperidol, water, elution time 30 min): 11.3 µg/mL
Dissolved amount ([1]; Haloperidol, water, elution time 360 min): 13.1 µg/mL
Dissolved amount ([2]; Haloperidol, 2nd fluid for disintegration test, elution time 3 min): 23.9 µg/mL
Dissolved amount ([2]; Haloperidol, 2nd fluid for disintegration test, elution time 10 min): 35.6 µg/mL
Dissolved amount ([2]; Haloperidol, 2nd fluid for disintegration test, elution time 120 min): 50.1 µg/mL
Dissolved amount ([2]; Haloperidol, 2nd fluid for disintegration test, elution time 360 min): 48.9 µg/mL

COc1cc(Cc2cnc(N)nc2N)cc(OC)c1OC [compound 13, Trimethoprim]
Dissolved amount [1, 3]: 656.3 µg/mL
Dissolved amount [2, 11]: 1321.9 µg/mL

O=C1NC(=O)C(c2ccccc2)(c2ccccc2)N1 [compound 21, Phenyloin]
Dissolved amount ([1]; water, elution time 3 min): 26.5 µg/mL
Dissolved amount ([1]; water, elution time 10 min): 23.3 µg/mL
Dissolved amount ([1]; water, elution time 360 min): 24.1 µg/mL
Dissolved amount [2, 5]: 17.4 µg/mL
Dissolved amount [2, 6]: 42.1 µg/mL
Dissolved amount [2, 7]: 50.7 µg/mL
Dissolved amount [2, 12]: 27.2 µg/mL
Dissolved amount [2, 10]: 32.5 µg/mL

CCCCCCC(=O)O[C@H]1CC[C@H]2[C@@H]3CCc4cc(O)ccc4[C@H]3CC[C@]12C [compound 44, Estradiol Enanthate]
Dissolved amount ([1]; Estradiol Enanthate, water, elution time 3 min): 1.6 µg/mL
Dissolved amount ([1]; Estradiol Enanthate, water, elution time 10 min): 1.4 µg/mL
Dissolved amount ([1]; Estradiol Enanthate, water, elution time 30 min): 1.8 µg/mL
Dissolved amount ([1]; Estradiol Enanthate, water, elution time 120 min): 1.6 µg/mL
Dissolved amount ([1]; Estradiol Enanthate, water, elution time 360 min): 1.3 µg/mL
Dissolved amount ([2]; Estradiol Enanthate, 2nd fluid for disintegration test, elution time 3 min): 7.9 µg/mL
Dissolved amount ([2]; Estradiol Enanthate, 2nd fluid for disintegration test, elution time 30 min): 7.0 µg/mL
Dissolved amount ([2]; Estradiol Enanthate, 2nd fluid for disintegration test, elution time 120 min): 19.0 µg/mL
Dissolved amount ([2]; Estradiol Enanthate, 2nd fluid for disintegration test, elution time 360 min): 10.9 µg/mL

COc1ccccc1OCCNCC(O)COc1cccc2[nH]c3ccccc3c12 (stereo not drawn) [compound 49, Carvedilol]
Dissolved amount ([1]; Carvedilol, water, elution time 3 min): 5.2 µg/mL
Dissolved amount ([1]; Carvedilol, water, elution time 10 min): 8.3 µg/mL
Dissolved amount ([1]; Carvedilol, water, elution time 30 min): 10.0 µg/mL
Dissolved amount ([1]; Carvedilol, water, elution time 120 min): 15.0 µg/mL
Dissolved amount ([1]; Carvedilol, water, elution time 360 min): 16.0 µg/mL
Dissolved amount ([2]; Carvedilol, 2nd fluid for disintegration test, elution time 3 min): 13.9 µg/mL
Dissolved amount ([2]; Carvedilol, 2nd fluid for disintegration test, elution time 10 min): 26.3 µg/mL
Dissolved amount ([2]; Carvedilol, 2nd fluid for disintegration test, elution time 30 min): 48.6 µg/mL
Dissolved amount ([2]; Carvedilol, 2nd fluid for disintegration test, elution time 120 min): 44.1 µg/mL
Dissolved amount ([2]; Carvedilol, 2nd fluid for disintegration test, elution time 360 min): 45.1 µg/mL

CC(=O)S[C@@H]1CC2=CC(=O)CC[C@]2(C)[C@H]2CC[C@@]3(C)[C@@H](CC[C@@]34CCC(=O)O4)[C@H]12 [compound 34, Spironolactone]
Dissolved amount ([1]; Spironolactone, water, elution time 3 min): 29.6 µg/mL
Dissolved amount ([1]; Spironolactone, water, elution time 10 min): 31.9 µg/mL
Dissolved amount ([1]; Spironolactone, water, elution time 30 min): 33.7 µg/mL
Dissolved amount ([1]; Spironolactone, water, elution time 120 min): 39.7 µg/mL
Dissolved amount ([1]; Spironolactone, water, elution time 360 min): 35.2 µg/mL
Dissolved amount ([2]; Spironolactone, 2nd fluid for disintegration test, elution time 3 min): 71.0 µg/mL
Dissolved amount ([2]; Spironolactone, 2nd fluid for disintegration test, elution time 10 min): 85.6 µg/mL
Dissolved amount ([2]; Spironolactone, 2nd fluid for disintegration test, elution time 30 min): 89.3 µg/mL
Dissolved amount ([2]; Spironolactone, 2nd fluid for disintegration test, elution time 120 min): 92.0 µg/mL
Dissolved amount ([2]; Spironolactone, 2nd fluid for disintegration test, elution time 360 min): 93.7 µg/mL

Cc1ccc(S(=O)(=O)NC(=O)NN2CC3CCCC3C2)cc1 (stereo not drawn) [compound 32, Gliclazide]
Dissolved amount ([1]; Gliclazide, water, elution time 3 min): 11.1 µg/mL
Dissolved amount ([1]; Gliclazide, water, elution time 10 min): 26.3 µg/mL
Dissolved amount ([1]; Gliclazide, water, elution time 30 min): 35.4 µg/mL
Dissolved amount ([1]; Gliclazide, water, elution time 120 min): 38.8 µg/mL
Dissolved amount ([1]; Gliclazide, water, elution time 360 min): 39.3 µg/mL
Dissolved amount ([2]; Gliclazide, 2nd fluid for disintegration test, elution time 3 min): 80.1 µg/mL
Dissolved amount ([2]; Gliclazide, 2nd fluid for disintegration test, elution time 30 min): 296.1 µg/mL
Dissolved amount ([2]; Gliclazide, 2nd fluid for disintegration test, elution time 120 min): 420.2 µg/mL
Dissolved amount ([2]; Gliclazide, 2nd fluid for disintegration test, elution time 360 min): 429.4 µg/mL

COc1ccc(Cl)cc1C(=O)NCCc1ccc(S(=O)(=O)NC(=O)NC2CCCCC2)cc1 [compound 11, Glibenclamide]
Dissolved amount [1, 3]: 6.4 µg/mL
Dissolved amount [2, 11]: 8.0 µg/mL

CNC[C@H](O)c1ccc(O)c(O)c1 [compound 29, Epinephrine]
Dissolved amount [2]: 2001.7 µg/mL and 2061.7 µg/mL and 2129.3 µg/mL and 2102.5 µg/mL

Nc1nc(N)c2nc(-c3ccccc3)c(N)nc2n1 [6-1, Triamterene]
Dissolved amount [1, 3]: 21.3 µg/mL
Dissolved amount [2, 11]: 18.4 µg/mL

COc1ccc2c(c1)c(CC(=O)O)c(C)n2C(=O)c1ccc(Cl)cc1 [compound 20, Indomethacin]
Dissolved amount ([1]; water, elution time 3 min): 7.8 µg/mL
Dissolved amount ([1]; water, elution time 10 min): 7.9 µg/mL
Dissolved amount ([1]; water, elution time 30 min): 8.0 µg/mL
Dissolved amount ([1]; water, elution time 120 min): 8.5 µg/mL
Dissolved amount ([1]; water, elution time 360 min): 8.2 µg/mL
Dissolved amount [2, 5]: 627.9 µg/mL
Dissolved amount [2, 6]: 693.7 µg/mL
Dissolved amount [2, 7]: 821.8 µg/mL
Dissolved amount [2, 12]: 928.5 µg/mL
Dissolved amount [2, 10]: 1114.4 µg/mL

CC(=O)O[C@]1(C(C)=O)CC[C@H]2[C@@H]3C=C(Cl)C4=CC(=O)CC[C@]4(C)[C@H]3CC[C@@]21C [Comparative Example 3-2, Chlormadinone acetate]
Dissolved amount [1, 3]: 1.2 µg/mL
Dissolved amount ([1]; water, elution time 1 min): 0.6 µg/mL
Dissolved amount ([1]; water, elution time 3 min): 0.6 µg/mL
Dissolved amount ([1]; water, elution time 10 min): 0.7 µg/mL
Dissolved amount ([1]; water, elution time 30 min): 0.9 µg/mL
Dissolved amount ([1]; water, elution time 60 min): 1.0 µg/mL
Dissolved amount ([1]; water, elution time 180 min): 1.1 µg/mL
Dissolved amount ([1]; water, elution time 360 min): 1.2 µg/mL
Dissolved amount [2, 4]: 1.4 µg/mL
Dissolved amount [2, 5]: 1.4 µg/mL
Dissolved amount [2, 6]: 1.8 µg/mL
Dissolved amount [2, 7]: 1.0 µg/mL
Dissolved amount [2, 8]: 1.0 µg/mL
Dissolved amount [2, 9]: 2.3 µg/mL
Dissolved amount [2, 10]: 2.8 µg/mL
Dissolved amount [2, 11]: 2.8 µg/mL
